From patent publication US4479951A, “1.4;3.6-Dianhydrohexitol nitrates substituted by purine bases, processes for their preparation and pharmaceutical compositions” (Dr. Willmar Schwabe GmbH & Co., priority 1980, dated 1984)

What was measured:
guinea pigs = test: blood pressure-lowering effectiveness on narcotised guinea pigs, intravenous; type: in vivo, guinea pig; conditions: for blood pressure previously: before administration
female NMRI-albino mice = test: acute toxicity, intravenous; type: in vivo; conditions: within 24 hours
[1] = acute toxicity, intravenous; type: in vivo; conditions: mouse, in vivo, iv; within 24 hours; read-out: Evaluated LD50-range
[2] = system: isolated rat aorta preparations; test: spasmolytic effectiveness, potassium chloride-induced contractions; conditions: read-out: ED50 potassium chloride spasm
[3] = system: isolated rat aorta preparations; test: spasmolytic effectiveness, noradrenaline-induced contractions; conditions: read-out: ED50 noradrenaline spasm

CNc1ncnc2c1ncn2[C@H]1CO[C@H]2[C@@H]1OC[C@@H]2O[N+](=O)[O-] [Example 3c, 5-(6-Methylaminopurin-9-yl)-5-desoxy-1.4;3.6-dianhydro-L-iditol 2-nitrate]
blood pressure afterwards (guinea pigs; 0.25 mg/kg i.v.): 79.25 ± 2.56 mm. Hg
blood pressure Δ (guinea pigs; 0.25 mg/kg i.v.): -0.25 mm. Hg
blood pressure previously (guinea pigs; 0.25 mg/kg i.v.): 79.50 ± 2.50 mm. Hg
blood pressure afterwards (guinea pigs; 1.00 mg/kg i.v.): 71.50 ± 3.97 mm. Hg
blood pressure Δ (guinea pigs; 1.00 mg/kg i.v.): -8.00 mm. Hg
blood pressure previously (guinea pigs; 1.00 mg/kg i.v.): 79.50 ± 2.66 mm. Hg
blood pressure afterwards (guinea pigs; 2.50 mg/kg i.v.): 61.50 ± 3.23 mm. Hg
blood pressure Δ (guinea pigs; 2.50 mg/kg i.v.): -15.50 mm. Hg
blood pressure previously (guinea pigs; 2.50 mg/kg i.v.): 77.00 ± 2.80 mm. Hg
Frequency of death (female NMRI-albino mice; 100 mg/kg i.v.): 0/6
Frequency of death (female NMRI-albino mice; 200 mg/kg i.v.): 3/3
LD50 at 24 h [1]: 100 to 200 mg/kg
IC50 [2]: 4600 nM
IC50 [3]: 480 nM

CN(C)c1ncnc2c1ncn2[C@H]1CO[C@H]2[C@@H]1OC[C@@H]2O[N+](=O)[O-] [Example 4b, 5-(6-Dimethylaminopurin-9yl)-5-desoxy-1.4;3.6-dianhydro-L-iditol 2-nitrate]
blood pressure afterwards (guinea pigs; 0.25 mg/kg i.v.): 63.25 ± 4.23 mm. Hg
blood pressure Δ (guinea pigs; 0.25 mg/kg i.v.): -10.50 mm. Hg
blood pressure previously (guinea pigs; 0.25 mg/kg i.v.): 73.75 ± 2.14 mm. Hg
blood pressure afterwards (guinea pigs; 1.00 mg/kg i.v.): 59.00 ± 1.47 mm. Hg
blood pressure Δ (guinea pigs; 1.00 mg/kg i.v.): -15.00 mm. Hg
blood pressure previously (guinea pigs; 1.00 mg/kg i.v.): 74.00 ± 1.91 mm. Hg
blood pressure afterwards (guinea pigs; 2.50 mg/kg i.v.): 43.50 ± 2.50 mm. Hg
blood pressure Δ (guinea pigs; 2.50 mg/kg i.v.): -28.50 mm. Hg
blood pressure previously (guinea pigs; 2.50 mg/kg i.v.): 72.00 ± 2.45 mm. Hg
Frequency of death (female NMRI-albino mice; 50 mg/kg i.v.): 0/3
Frequency of death (female NMRI-albino mice; 100 mg/kg i.v.): 3/3
Frequency of death (female NMRI-albino mice; 200 mg/kg i.v.): 3/3
LD50 at 24 h [1]: 50 to 100 mg/kg
IC50 [2]: 29000 nM
IC50 [3]: 220 nM

CCNc1ncnc2c1ncn2[C@H]1CO[C@H]2[C@@H]1OC[C@@H]2O[N+](=O)[O-] [Example 5b, 5-(6-Ethylaminopurin-9-yl)-5-desoxy-1.4;3.6-dianhydro-L-iditol 2-nitrate]
blood pressure afterwards (guinea pigs; 0.25 mg/kg i.v.): 71.00 ± 5.04 mm. Hg
blood pressure Δ (guinea pigs; 0.25 mg/kg i.v.): -5.50 mm. Hg
blood pressure previously (guinea pigs; 0.25 mg/kg i.v.): 76.50 ± 2.66 mm. Hg
blood pressure afterwards (guinea pigs; 1.00 mg/kg i.v.): 65.75 ± 3.75 mm. Hg
blood pressure Δ (guinea pigs; 1.00 mg/kg i.v.): -12.75 mm. Hg
blood pressure previously (guinea pigs; 1.00 mg/kg i.v.): 78.50 ± 1.70 mm. Hg
blood pressure afterwards (guinea pigs; 2.50 mg/kg i.v.): 51.00 ± 3.13 mm. Hg
blood pressure Δ (guinea pigs; 2.50 mg/kg i.v.): -25.25 mm. Hg
blood pressure previously (guinea pigs; 2.50 mg/kg i.v.): 76.25 ± 2.59 mm. Hg
Frequency of death (female NMRI-albino mice; 50 mg/kg i.v.): 1/11
Frequency of death (female NMRI-albino mice; 100 mg/kg i.v.): 3/6
Frequency of death (female NMRI-albino mice; 200 mg/kg i.v.): 3/3
LD50 at 24 h [1]: 50 to 100 mg/kg
IC50 [2]: 13000 nM
IC50 [3]: 380 nM

O=[N+]([O-])O[C@H]1CO[C@H]2[C@@H]1OC[C@@H]2n1cnc2c(N3CCCC3)ncnc21 [Example 6b, 5-(6-Pyrrolidinopurin-9-yl)-5-desoxy-1.4;3.6-dianhydro-L-iditol 2-nitrate]
blood pressure afterwards (guinea pigs; 0.25 mg/kg i.v.): 51.50 ± 4.94 mm. Hg
blood pressure Δ (guinea pigs; 0.25 mg/kg i.v.): -13.50 mm. Hg
blood pressure previously (guinea pigs; 0.25 mg/kg i.v.): 65.00 ± 4.02 mm. Hg
blood pressure afterwards (guinea pigs; 1.00 mg/kg i.v.): 44.75 ± 2.84 mm. Hg
blood pressure Δ (guinea pigs; 1.00 mg/kg i.v.): -20.75 mm. Hg
blood pressure previously (guinea pigs; 1.00 mg/kg i.v.): 65.50 ± 2.36 mm. Hg
blood pressure afterwards (guinea pigs; 2.50 mg/kg i.v.): 37.25 ± 1.11 mm. Hg
blood pressure Δ (guinea pigs; 2.50 mg/kg i.v.): -24.75 mm. Hg
blood pressure previously (guinea pigs; 2.50 mg/kg i.v.): 62.00 ± 2.04 mm. Hg
Frequency of death (female NMRI-albino mice; 50 mg/kg i.v.): 0/3
Frequency of death (female NMRI-albino mice; 100 mg/kg i.v.): 3/3
Frequency of death (female NMRI-albino mice; 200 mg/kg i.v.): 3/3
LD50 at 24 h [1]: 50 to 100 mg/kg
IC50 [2]: 4070 nM
IC50 [3]: 540 nM

O=[N+]([O-])O[C@H]1CO[C@H]2[C@@H]1OC[C@@H]2n1cnc2c(N3CCCCC3)ncnc21 [Example 7b, 5-(6-Piperidinopurin-9-yl)-5-desoxy-1.4;3.6-dianhydro-L-iditol 2-nitrate]
IC50 [2]: 2900 nM
IC50 [3]: 240 nM

O=[N+]([O-])O[C@H]1CO[C@H]2[C@@H]1OC[C@@H]2n1cnc2c(N3CCOCC3)ncnc21 [Example 8b, 5-(6-Morpholinopurin-9-yl)-5-desoxy-1.4;3.6-dianhydro-L-iditol 2-nitrate]
IC50 [2]: 3000 nM
IC50 [3]: 290 nM

CN1CCN(c2ncnc3c2ncn3[C@H]2CO[C@H]3[C@@H]2OC[C@@H]3O[N+](=O)[O-])CC1 [Example 9b, 5-[6-(4-Methylpiperazino)-purin-9-yl]-5-desoxy-1.4;3.6-dianhydro-L-iditol 2-nitrate]
blood pressure afterwards (guinea pigs; 0.25 mg/kg i.v.): 70.25 ± 8.39 mm. Hg
blood pressure Δ (guinea pigs; 0.25 mg/kg i.v.): -2.25 mm. Hg
blood pressure previously (guinea pigs; 0.25 mg/kg i.v.): 72.50 ± 6.20 mm. Hg
blood pressure afterwards (guinea pigs; 1.00 mg/kg i.v.): 69.75 ± 7.44 mm. Hg
blood pressure Δ (guinea pigs; 1.00 mg/kg i.v.): -3.50 mm. Hg
blood pressure previously (guinea pigs; 1.00 mg/kg i.v.): 73.25 ± 6.24 mm. Hg
blood pressure afterwards (guinea pigs; 2.50 mg/kg i.v.): 59.75 ± 4.82 mm. Hg
blood pressure Δ (guinea pigs; 2.50 mg/kg i.v.): -12.75 mm. Hg
blood pressure previously (guinea pigs; 2.50 mg/kg i.v.): 72.50 ± 5.24 mm. Hg
Frequency of death (female NMRI-albino mice; 100 mg/kg i.v.): 4/6
Frequency of death (female NMRI-albino mice; 200 mg/kg i.v.): 3/3
LD50 at 24 h [1]: 50 to 100 mg/kg
IC50 [2]: 25000 nM
IC50 [3]: 2650 nM

CC(C)(C)C(=O)Nc1ncnc2c1ncn2[C@H]1CO[C@H]2[C@@H]1OC[C@@H]2O[N+](=O)[O-] [Example 10, 5-[9-(6-N-Pivaloyl)-adenyl]-5-desoxy-1.4;3.6-dianhydro-L-iditol 2-nitrate]
IC50 [2]: 6500 nM
IC50 [3]: 302 nM

Cn1c(=O)c2c(ncn2[C@H]2CO[C@H]3[C@@H]2OC[C@@H]3O[N+](=O)[O-])n(C)c1=O [Example 12b, 5-(7-Theophyllinyl)-5-desoxy-1.4;3.6-dianhydro-L-iditol 2-nitrate]
IC50 [2]: 4200 nM
IC50 [3]: 3200 nM

O=[N+]([O-])O[C@H]1CO[C@H]2[C@@H]1OC[C@@H]2n1cnc2c(NCc3ccccc3)ncnc21 [Example 13b, 5-(6-Benzylaminopurin-9-yl)-5-desoxy-1.4;3.6-dianhydro-L-iditol 2-nitrate]
IC50 [2]: 2400 nM
IC50 [3]: 16.8 nM

O=[N+]([O-])O[C@@H]1CO[C@H]2[C@@H]1OC[C@@H]2O [ISMN, 1.4;3.6-dianhydro-D-glucitol 2-nitrate, reference compound]
blood pressure afterwards (guinea pigs; 0.25 mg/kg i.v.): 53.90 ± 3.10 mm. Hg
blood pressure previously (guinea pigs; 0.25 mg/kg i.v.): 57.60 ± 3.10 mm. Hg
blood pressure afterwards (guinea pigs; 1.00 mg/kg i.v.): 48.40 ± 3.20 mm. Hg
blood pressure previously (guinea pigs; 1.00 mg/kg i.v.): 54.70 ± 3.80 mm. Hg
blood pressure afterwards (guinea pigs; 2.50 mg/kg i.v.): 41.40 ± 3.90 mm. Hg
blood pressure previously (guinea pigs; 2.50 mg/kg i.v.): 52.30 ± 4.80 mm. Hg
